Data as given in US12054483B2, “Small molecule inhibitors of DYRK/CLK and uses thereof” (Arizona Board of Regents on Behalf of the University of …, priority 2018, dated 2024).

molecular target: DYRK1A (Homo sapiens, UniProt Q13627); assay: Affinity testing of compounds with DYRK1A (KD); type: binding; conditions: DYRK1A affinity key classes

Kd [nM] | Compound
101 to 500 | Cc1nc2cc(-n3c(C)nc4ccc(-c5cn[nH]c5)nc43)ccc2o1 [Compound 36, 2-methyl-5-(2-methyl-5-(1H-pyrazol-4-yl)-3H-imidazo[4,5-b]pyridin-3-yl)benzo oxazole]
0.5 to 100 | Cc1nc2ccc(-c3cn[nH]c3)c(F)c2n1-c1ccc2c(c1)OCO2 [Compound 20, 1-(benzo[d][1,3]dioxol-5-yl)-7-fluoro-2-methyl-6-(1H-pyrazol-4-yl)-1H-benzo[d]imidazole]
101 to 500 | Cc1nc2ccc(-c3ccncc3)nc2n1-c1ccc(CN2CCOCC2)nc1 [Compound 133, 4-((5-(2-methyl-5-(pyridin-4-yl)-3H-imidazo[4,5-b]pyridin-3-yl)pyridin-2-yl)methyl)morpholine]
101 to 500 | Cc1nc2ccc(-c3cnn(C)c3)nc2n1-c1ccc2c(c1)OCO2 [Compound 31, 3-(benzo[d][1,3]dioxol-5-yl)-2-methyl-5-(1-methyl-1H-pyrazol-4-yl)-3H-imidazo[4,5-b]pyridine]
101 to 500 | c1cn2nc(-c3cn[nH]c3)ccc2n1 [Compound 26, 6-(1H-pyrazol-4-yl)imidazo[1,2-b]pyridazine]
0.5 to 100 | Cc1nc2ccc(-c3ccnc4[nH]ccc34)nc2n1-c1ccc(N2CCOCC2)c(F)c1 [Compound 143, 4-(2-fluoro-4-(2-methyl-5-(1H-pyrrolo[2,3-b]pyridin-4-yl)-3H-imidazo[4,5-b]pyridin-3-yl)phenyl)morpholine]
0.5 to 100 | Cc1nc2ccc(-c3ccnc(N)c3)nc2n1-c1cccc(CN2CCOCC2)c1 [Compound 153, 4-(2-methyl-3-(3-(morpholinomethyl)phenyl)-3H-imidazo[4,5-b]pyridin-5-yl)pyridin-2-amine]
0.5 to 100 | Cc1nc2ccc(-c3ccnc4[nH]ccc34)nc2n1-c1ccc(CN2CCOCC2)cc1 [Compound 179, 4-(4-(2-methyl-5-(1H-pyrrolo[2,3-b]pyridin-4-yl)-3H-imidazo[4,5-b]pyridin-3-yl)benzyl)morpholine]
101 to 500 | Fc1cc(-c2cnc3ccc(-c4ccncc4)nn23)ccc1CN1CCCCC1 [Compound 79, 3-(3-fluoro-4-(piperidin-1-ylmethyl)phenyl)-6-(pyridin-4-yl)imidazo[1,2-b]pyridazine]
501 to 10000 | O=C(O)c1ccnc(-n2cnc3ccc(-c4ccncc4)c(F)c32)c1 [Compound 13, 2-(7-fluoro-6-(pyridin-4-yl)-1H-benzo[d]imidazol-1-yl)isonicotinic acid]
0.5 to 100 | Cc1nc2ccc(-c3cn[nH]c3)nc2n1-c1ccc2[nH]cnc2c1 [Compound 33, 3-(1H-benzo[d]imidazol-5-yl)-2-methyl-5-(1H-pyrazol-4-yl)-3H-imidazo[4,5-b]pyridine]
101 to 500 | FC1(F)CN(Cc2ccc(-c3cnc4ccc(-c5ccncc5)nn34)cc2)C1 [Compound 102, 3-(4-((3,3-difluoroazetidin-1-yl)methyl)phenyl)-6-(pyridin-4-yl)imidazo[1,2-b]pyridazine]
501 to 10000 | Cc1nc2ccc(-c3ccncc3)nc2n1-c1ccc(CN2CCOCC2)cn1 [Compound 64, 4-((6-(2-methyl-5-(pyridin-4-yl)-3H-imidazo[4,5-b]pyridin-3-yl)pyridin-3-yl)methyl)morpholine]
0.5 to 100 | Cc1nc2ccc(-c3ccncc3)nc2n1-c1ccc(CN2CC3CCC(C2)O3)cc1 [Compound 122, 3-(4-(2-methyl-5-(pyridin-4-yl)-3H-imidazo[4,5-b]pyridin-3-yl)benzyl)-8-oxa-3-azabicyclo[3.2.1]octane]
0.5 to 100 | Cc1nc2ccc(-c3ccncc3)nc2n1-c1ccc(CN2CCS(=O)(=O)CC2)cc1 [Compound 126, 4-(4-(2-methyl-5-(pyridin-4-yl)-3H-imidazo[4,5-b]pyridin-3-yl)benzyl)thiomorpholine 1,1-dioxide]
0.5 to 100 | Cc1nc2ccc(-c3ccncc3)nc2n1-c1ccc2c(c1)OCO2 [Compound 29, 3-(benzo[d][1,3]dioxol-5-yl)-2-methyl-5-(pyridin-4-yl)-3H-imidazo[4,5-b]pyridine]
101 to 500 | Cc1cc(-c2ccc3ncc(-c4ccc(CN5CCCC(F)(F)C5)cc4)n3n2)ccn1 [Compound 89, 3-(4-((3,3-difluoropiperidin-1-yl)methyl)phenyl)-6-(2-methylpyridin-4-yl)imidazo[1,2-b]pyridazine]
0.5 to 100 | Cc1nc2ccc(-c3ccnc(Cl)c3)nc2n1-c1ccc(CN2CCOCC2)cc1 [Compound 176, 4-(4-(5-(2-chloropyridin-4-yl)-2-methyl-3H-imidazo[4,5-b]pyridin-3-yl)benzyl)morpholine]
0.5 to 100 | Cc1nc2ccc(-c3ccnc(N)c3)nc2n1-c1ccc(N2CC3CCC(C2)O3)c(F)c1 [Compound 167, 4-(3-(4-(8-oxa-3-azabicyclo[3.2.1]octan-3-yl)-3-fluorophenyl)-2-methyl-3H-imidazo[4,5-b]pyridin-5-yl)pyridin-2-amine]
0.5 to 100 | Cc1nc2ccc(-c3ccnc(N)c3)nc2n1-c1ccc2c(c1)OCC(=O)N2 [Compound 46, 7-(5-(2-aminopyridin-4-yl)-2-methyl-3H-imidazo[4,5-b]pyridin-3-yl)-2H-benzo[b][1,4]oxazin-3(4H)-one]
501 to 10000 | Cc1cc(-c2ccc3ncc(N4CCN(C5COC5)CC4)n3n2)ccn1 [Compound 84, 6-(2-methylpyridin-4-yl)-3-(4-(oxetan-3-yl)piperazin-1-yl)imidazo[1,2-b]pyridazine]
0.5 to 100 | Cc1nc2ccc(-c3ccncc3)nc2n1-c1ccc(CN2CCN(C3COC3)CC2)cc1 [Compound 63, 2-methyl-3-(4-((4-(oxetan-3-yl)piperazin-1-yl)methyl)phenyl)-5-(pyridin-4-yl)-3H-imidazo[4,5-b]pyridine]
101 to 500 | c1cc(-c2ccc3ncc(-c4ccc(CN5CCOCC5)cc4)n3n2)ccn1 [Compound 96, 4-(4-(6-(pyridin-4-yl)imidazo[1,2-b]pyridazin-3-yl)benzyl)morpholine]
101 to 500 | Cc1nc2ncc(-c3ccnc(N)c3)nc2n1-c1ccc2[nH]cnc2c1 [Compound 130, 4-(1-(1H-benzo[d]imidazol-5-yl)-2-methyl-1H-imidazo[4,5-b]pyrazin-6-yl)pyridin-2-amine]
0.5 to 100 | Cc1nc2ccc(-c3ccnc(N)c3)nc2n1-c1ccc(CN2CCOCC2)cc1 [Compound 44, 4-(2-methyl-3-(4-(morpholinomethyl)phenyl)-3H-imidazo[4,5-b]pyridin-5-yl)pyridin-2-amine]
0.5 to 100 | CCOC(=O)c1ccc(-n2c(C)nc3ccc(-c4ccncc4)nc32)cc1 [Compound 40, ethyl 4-(2-methyl-5-(pyridin-4-yl)-3H-imidazo[4,5-b]pyridin-3-yl)benzoate]
101 to 500 | COc1cc(-c2ccc3ncc(-c4ccc(CN5CCOCC5)cc4)n3n2)ccn1 [Compound 107, 4-(4-(6-(2-methoxypyridin-4-yl)imidazo[1,2-b]pyridazin-3-yl)benzyl)morpholine]
0.5 to 100 | Cc1nc2ccc(-c3ccncc3)nc2n1-c1ccc(CN2C[C@@H]3C[C@@H]2CO3)cc1 [Compound 124, (1S,4R)-5-(4-(2-methyl-5-(pyridin-4-yl)-3H-imidazo[4,5-b]pyridin-3-yl)benzyl)-2-oxa-5-azabicyclo[2.2.1]heptane]
0.5 to 100 | c1cc(-c2ccc3ncc(-c4ccc(N5CCOCC5)nc4)n3n2)ccn1 [Compound 73, 4-(5-(6-(pyridin-4-yl)imidazo[1,2-b]pyridazin-3-yl)pyridin-2-yl)morpholine]
